The test system of the assay is H1975 cells. The experiment in a line: Trypan blue exclusion cell death assay in H1975 cells. It is filed as cell-based. As to conditions: Osimertinib 100 nM, 24 hrs, FIG. 13C. The method, then: miRNA Transfections and Osimertinib treatments miRNA stock was prepared by suspending in RNAse-free water. Cells were seeded such that they were 70-80% confluent at the time of transfection. Cells were allowed to adhere for 24 hrs and then transfected with 25 nM of miRNA inhibitors against hsa-miR184 (Sigma #HSTUD0282), hsa-miR22-3p (Sigma #HSTUD0393) or 100 nM of hsa-let7b-5p miRNA mimic (Sigma c #HMI0007) using Lipofectamine 3000 (Invitrogen #L3000001). Osimertinib (100 nM) was added an hour after transfection to cells. Cells were allowed to incubate with transfection mix for 24 hrs at 37° C., 5% CO2 and then washed with 1× PBS and trypsinized to be used for cell count and Western blotting.

With `C=CC(=O)Nc1cc(Nc2nccc(-c3cn(C)c4ccccc34)n2)c(OC)cc1N(C)CCN(C)C` [Osimertinib], the H1975 cell death result is “induced”.

The values above are taken from patent publication US20240301504A1, “MULTIANALYTE BIOMARKERS FOR LUNG CANCER” (The Curators of the University of Missouri, priority 2021, published 2024).
